# Assay results published in US7790766B2, “Pharmaceutical compositions of short-acting sedative hypnotic agent” (Theravance, Inc., priority 2003, dated 2010).
# Experiment: Solubility in aqueous media
# Assay type: physicochemical
compound,measurement,value
"CCCOC(=O)Cc1ccc(OCC(=O)N(CC)CC)c(OCC)c1 [Compound 1, [4-[(N,N-diethylcarbamoyl)methoxy]-3-ethoxyphenyl]acetic acid propyl ester]",Solubility in aqueous media,"poorly, if, at all soluble"
